The record followed here is article PMC12177571, “Glycosidase-activated prodrugs of a cytotoxic iron chelator for targeted cancer therapy” (RSC Medicinal Chemistry, 2025).

SMILES strings stand for the structures.

Assay [1] has as its target T1, β-galactosidase (Escherichia coli, UniProt P00722).
T1 construct: purchased Roche; host or cells: E. coli overproducer
As to the kind of experiment: AIE fluorescence study of release of 1 with β-galactosidase. It counts as biochemical, e.coli. Particulars: free chelator 1 as reference, 20 μM, enzyme not specified. The procedure: The AIE fluorescence properties of 1 were used as a means of supporting the above conclusion. The emission of all glycosylated prodrugs is suppressed. Thus, solutions of each prodrug were prepared in water, and three enzyme units of β-galactosidase or β-glucosidase, as appropriate, were added to the prodrugs. Each mixture was then analysed by fluorescence spectroscopy after 24 h of incubation. […] This finding is consistent with a lack of enzymatic activation.
Fig. 4 Relative emission intensity at 480 nm (*for 3b at 420 nm) of evaluated compounds at 20 μM before and after incubation with 3 U of the appropriate enzyme. TEXT PRINTED IN THE PICTURE: 1: Relative Emission 480 nm: 100% (Before incubation); Relative Emission 480 nm: 100% (After 24 h incubation) | 2a: Relative Emission 480 nm: 0% (Before incubation); Relative Emission 480 nm: 0% (After 24 h incubation) | 2b: Relative Emission 480 nm: 0% (Before incubation); Relative Emission 480 nm: 1% (After 24 h incubation) | 3a: Relative Emission 480 nm: 1% (Before incubation); Relative Emission 480 nm: 33% (After 24 h incubation) | 3b*: Relative Emission 480 nm: 1% (Before incubation); Relative Emission 480 nm: 11% (After 24 h incubation) […]
Figure S25: Fluorescence spectra for excitation (blue) and emission (green) of 1 at a concentration of 20 μM in water.
Figure S26: Fluorescence spectra for excitation (blue) and emission (green) of 2a at a concentration of 20 μM in water before (left) and after (right) incubation with 3 units of b-galactosidase for 24 h. […]
Figure S28: Fluorescence spectra for excitation (blue) and emission (green) of 3a at a concentration of 20 μM in water before (left) and after (right) incubation with 3 units of β-galactosidase for 24 h. […]

A short description of assay [2]: Fe(III) binding study by UV-vis spectroscopy. Particulars: 30 μM compound, excess FeCl3 (50 μM), methanol. The procedure:
With the prodrugs in hand, binding studies were carried out using UV-vis spectroscopy; this was done to confirm the Fe(III) binding ability of all new compounds. […] To evaluate whether 2a, 2b, 3a, and 3b were chelating Fe(III), each prodrug was similarly dissolved in a solution containing excess FeCl3.
Fig. 2 UV-vis absorption spectra for prodrugs 2a/b and 3a/b as well as 1 at a concentration of 30 μM with an excess of FeCl3 as Fe(III) source (50 μM) in methanol.
UV-vis spectra were recorded in methanol containing the indicated ligand or prodrug at a concentration of 30 µM and as appropriate Fe(III) at a concentration of 50 µM. A stock solution of FeCl3 in DMSO was used as source of Fe(III) and ligands were added from a […] stock solution in DMSO. All samples contained a final concentration of <0.2% DMSO.
Figure S7: UV-vis absorption spectra of 1, Fe(III), and 1 + Fe(III). The graph for 1 + Fe(III) (Numerically) was constructed by numerically adding the respective signals of Fe(III) and 1 to show what graph could be expected if the two species were in the same solution without interacting.
Figure S8: UV-vis absorption spectra of 2a, Fe(III), and 2a + Fe(III). The graph for 2a + Fe(III) (Numerically) was constructed by numerically adding the respective signals of Fe(III) and 2a to show what graph could be expected if the two species were in the same solution without interacting. […]

For assay [3], the system named is OvCar-3 cells. As to the kind of experiment: MTT cell viability assay, OvCar-3 cells. Particulars: Homo sapiens, 72 h incubation, mean and SD of three independent experiments, read-out: IC50 against OvCar-3. It counts as cell-based. The protocol: (§1) Next, the cytotoxicity of the prodrugs was assessed in the human lung cancer (A549) and human ovarian cancer (OvCar-3) cell lines: overexpressing β-glucosidase, and, overexpressing both β-glucosidase and β-galactosidase, respectively.[40,41] For this, a standard MTT assay was employed to generate the proliferation profiles (cf. ESI ^† Fig. S1–S5) and allowed us to calculate the IC50 values for each compound. GM5756 fibroblast cells were included as non-cancerous control.
(§2) Cell culture. Ovcar-3 cells were maintained in RPMI-1640 medium (Invitrogen), A549 cells were maintained in high glucose (4.5 g/L) Dulbecco’s Modified Eagle’s medium (Invitrogen. Alle employed culture media were supplemented with 10% fetal bovine serum (Gibco), 2% penicillin/streptomycin (Sigma Aldrich), 1%GlutaMAX™-I (100x, Gibco), and 1% sodium pyruvate (100 mM, Gibco).
(§3) Cells were kept under a humidified atmosphere of 10% CO2 and 90% air at 37°C. Cells were split when they reached 90% confluency. All employed cell lines were sourced from the German Collection of Microorganisms and Cell Cultures (Leibnitz Institute, DSMZ).
(§4) Cell viability studies and MTT assays. Cells were harvested and plated on a 96-well plate in 100 µL growth medium at a density of 1500 cells per well. The cells were left to grow for 24 h at 37°C under a humidified atmosphere with 10% CO2. The next day, 100 µL of growth medium containing appropriate concentrations of the investigated compound were added to each well. As a control, the first row of wells was treated with 100 µL medium containing only the vehicle (1% DMSO); all wells contained a final concentration of 0.5% DMSO for the duration of the treatment. After incubation with the compound for 72 h, 50 µL of MTT solution (2.5 mg/mL 3-(4,5-dimethylthiazol-2-yl)-2,5-diphenyltetrazolium bromide dye in PBS buffer) was added to each well. After an additional incubation for 2 h, the supernatant was aspired off and 200 µL of DMSO was added to each well to solubilize the precipitated formazan dye. The produced formazan dye was quantified by measuring the optical density of the solution at 550 nm with a Tecan Infinite M Nano+ plate reader. A baseline correction was performed by subtracting a reference absorbance at 620 nm for each well. From the mean of the corrected absorbances for each set of equivalent wells, a dose-response curve was produced, which was then normalized to the wells containing untreated cells to allow for plate-to-plate comparison. The resulting dose-response curves were subjected to non-linear regression analysis performed in Microsoft Excel (version 16.64) to determine IC50 via the Hill-Langmuir model. Data is shown as the mean of three replicate experiments and error bars represent the standard deviation at each datum point.
On the technique in general: Formazan colour is commonly taken as a measure of viable cells.

The test system of assay [4] is A549 cells. As to the kind of experiment: MTT cell viability assay, A549 cells. The format is cell-based. Particulars: Homo sapiens, 72 h incubation, mean and SD of three independent experiments, read-out: IC50 against A549. The protocol:
as §1, §2, §3, §4

For assay [5], the system named is GM5756 fibroblast cells. As to the kind of experiment: MTT cell viability assay, GM5756 fibroblast cells (non-cancerous control). The format is cell-based. Particulars: 72 h incubation, mean and SD of three independent experiments, read-out: IC50 against GM5756. The procedure: as §1, §2, §3, §4

T1 sequence (P00722 2-1024): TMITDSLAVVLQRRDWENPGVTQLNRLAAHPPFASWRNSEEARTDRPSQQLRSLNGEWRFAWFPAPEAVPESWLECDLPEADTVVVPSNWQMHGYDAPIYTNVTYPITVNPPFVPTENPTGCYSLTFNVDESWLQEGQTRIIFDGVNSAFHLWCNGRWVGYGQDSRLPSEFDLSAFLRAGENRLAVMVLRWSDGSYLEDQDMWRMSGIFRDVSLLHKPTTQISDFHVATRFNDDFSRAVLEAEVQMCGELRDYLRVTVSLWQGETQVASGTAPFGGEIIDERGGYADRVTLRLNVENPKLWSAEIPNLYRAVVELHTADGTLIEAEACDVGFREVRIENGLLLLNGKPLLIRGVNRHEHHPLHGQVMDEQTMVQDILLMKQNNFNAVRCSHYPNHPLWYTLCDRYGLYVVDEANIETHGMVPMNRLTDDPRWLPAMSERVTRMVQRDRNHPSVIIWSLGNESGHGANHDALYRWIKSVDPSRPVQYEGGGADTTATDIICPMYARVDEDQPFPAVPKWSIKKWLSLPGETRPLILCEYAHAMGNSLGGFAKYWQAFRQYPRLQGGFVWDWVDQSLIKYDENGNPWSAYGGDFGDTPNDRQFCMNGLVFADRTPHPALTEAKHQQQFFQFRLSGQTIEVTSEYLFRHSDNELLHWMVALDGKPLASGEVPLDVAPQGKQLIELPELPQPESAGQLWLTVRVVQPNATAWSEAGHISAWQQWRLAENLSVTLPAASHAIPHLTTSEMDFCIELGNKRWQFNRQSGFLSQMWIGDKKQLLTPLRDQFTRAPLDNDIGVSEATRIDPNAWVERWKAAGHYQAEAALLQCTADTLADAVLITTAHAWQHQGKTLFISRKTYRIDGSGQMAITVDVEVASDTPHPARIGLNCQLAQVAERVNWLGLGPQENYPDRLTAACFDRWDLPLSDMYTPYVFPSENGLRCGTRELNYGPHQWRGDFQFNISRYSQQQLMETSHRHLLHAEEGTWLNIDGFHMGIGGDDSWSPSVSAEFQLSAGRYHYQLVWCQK

One may read the IC50 as the concentration that gives 50% inhibition. In the case of `Oc1ccccc1-c1nc(-c2ccccc2O)n(-c2ccccc2)n1` [compound 1, reference compound], the “Relative emission intensity at 480 nm” value in assay [1] (after 24 h incubation) and in assay [1] (before incubation) was 100% each time. In assay [2], the “Absorbance at 510 nm (Fe(III) chelation band)” value was “characteristic absorption band at 510 nm”. The IC50 in assay [3] amounted to 3.9 ± 1.6 µM; in assay [4] it was 3.1 ± 0.4 µM; in assay [5], 2700 ± 100 nM.
